Measurements from patent US10508140B2, “Peptide having hair growth-promoting activity and/or melanin generation-promoting activity, and use thereof” (CAREGEN CO., LTD., priority 2016, dated 2019).
No end group written: not given here.

Key:
Format in all cases: cell-based
[1] = tested on: tyrosinase; experiment: Melanogenesis-related gene RT-PCR: tyrosinase; settings: B16F10 cell line, 72 hours
Protocol: (§1) Melanocytes (B16F10 cell line) were incubated on 6-well culture plates in an incubator for 24 hours, and were treated with the peptides of the present invention with different concentrations. After RNA was extracted from the cells incubated for 72 hours, cDNA was prepared. PCR was performed by using respective primers specific to MITF and tyrosinase, which are factors involved in melanogenesis, and the expression changes of the respective genes were observed.

[2] = tested on: tyrosinase; experiment: Tyrosinase activity assay; settings: B16F10 cells, 72 hours, L-dopa, absorbance 475 nm
Protocol: Melanoma cell line (B16F10) cells were cultured in 6-well culture plates for 24 hours, and treated with a peptide with difference concentrations, followed by culture for 72 hours. The 6-well culture plates were loaded on ice and washed with cool PBS, and then 300 μl of 0.1 M sodium phosphate buffer (pH 6.8 lysis buffer) containing 1% Triton X-100 was added. The cells were collected in 1.5-mL tubes, and then cell membranes were disrupted by repeating five times rapid-freezing at […] and thawing. After centrifugation at 13,000 rpm for 20 minutes, the supernatant was collected in other 1.5-mL tubes, and the protein of the samples was quantified. The samples were diluted to have the same protein concentration and then dispensed in each three wells in a 96-well culture plate, and then 20 μl of 10 mM L-dopa was added, followed by incubation at 37° C. for 1 hour.

[3] = tested on: KGF; experiment: KGF RT-PCR; settings: human hair follicle dermal papilla cells, 24 hours
Protocol: (§2) Human hair follicle dermal papilla cells were seeded at a density of 4×10^5 cells/well on 6-well plate, followed by incubation overnight. After changing into serum-free medium, the cells were treated with the peptides, followed by incubation for 24 hours, and then the wells were harvested to isolate RNA. After RNA quantification, cDNA synthesis was conducted using the cDNA synthesis kit (Intron, Korea), followed by PCR using PCR premix (Intron, Korea) and respective KGF and VEGF primers, and then electrophoresis was performed on 5% agarose gel to compare the mRNA expression levels of the growth factors in sample treatment conditions.

[4] = tested on: Bax; experiment: Bax western blotting; settings: human hair follicle dermal papilla cells, 24 hours
Protocol: (§3) Human hair follicle dermal papilla cells were seeded at a density of 4×10^5 cells/well on 6-well plate, followed by incubation overnight. After changing into serum-free medium, the cells were treated with the peptides, followed by incubation for 24 hours, and then the wells were harvested to prepare cell lysate. Western blotting was performed using Bcl-2 and Bax antibodies (Santa Cruz Biotechnology, USA) to compare protein expression patterns.

[5] = tested on: DKK-1; experiment: DKK-1 RT-PCR; settings: human hair follicle dermal papilla cells, DKK-1 increased by DHT, 24 hours
Protocol: (§4) Human hair follicle dermal papilla cells were seeded at a density of 5×10^5 cells/well on 6-well plates, followed by incubation overnight. After changing into serum-free medium, the cells were treated with the peptides, followed by incubation for 24 hours, and then the wells were harvested to isolate RNA. After RNA quantification, cDNA synthesis was conducted using the cDNA synthesis kit (Intron, Korea), followed by PCR using PCR premix (Intron, Korea) and DKK-1 primers, and then electrophoresis was performed on 5% agarose gel to compare the mRNA expression levels of the growth factors in respective sample treatment conditions.

[6] = tested on: PI3K; experiment: PI3K western blotting; settings: human hair follicle dermal papilla cells, 15 and 30 minutes
Protocol: as §3, with “15 and 30 minutes,” for “24 hours,”, “PI3K” for “Bcl-2 and Bax”, “Biotechnology, USA) and phospho-ERK antibody (Cell Signaling Technology,” for “Biotechnology,”

[7] = tested on: Bcl-2; experiment: Bcl-2 western blotting; settings: human hair follicle dermal papilla cells, 24 hours
Protocol: as §3

[8] = tested on: Human hair follicle dermal papilla cells; experiment: DPC proliferation assay (MTT); settings: serum-free medium, incubation for 3 days, absorbance 550 nm
Protocol: Human hair follicle dermal papilla cells were seeded at a density of 2×10^3 cells/well on 96-well plates, followed by incubation overnight. After changing into serum-free medium, the cells were treated with the peptides, followed by incubation for 3 days, and then the wells were treated with 4 mg/ml MTT solution, followed by reaction for 4 hours. The resulting formazan was solubilized with DNSO, and then the absorbance was measured at 550 nm using a microplate reader.

[9] = tested on: MITF; experiment: Melanogenesis-related gene RT-PCR: MITF; settings: B16F10 cell line, 72 hours
Protocol: as §1

[10] = tested on: tyrosinase; experiment: Melanogenesis-related protein western blotting: tyrosinase; settings: B16F10 cell line, 72 hours
Protocol: (§5) Melanocytes (B16F10 cell line) were incubated on 6-well culture plates for 24 hours, and were treated with the peptides of the present invention with different concentrations. After 72-hour incubation, the cells were lysed, and the cells were subjected to western blotting using specific antibodies (two types, both from Santa Cruz Biotechnology, USA) to investigate the expression of MITF and tyrosinase, which are factors involved in melanogenesis.

[11] = tested on: β-catenin; experiment: β-Catenin activity test (western blotting, nuclear and cytoplasmic proteins); settings: human hair follicle dermal papilla cells, 15 and 30 minutes
Protocol: as §3, with “plates,” for “plate,”, “15 and 30 minutes,” for “24 hours,”, “isolate nuclear and cytoplasmic proteins.” for “prepare cell lysate.”, “β-catenin” for “Bcl-2 and Bax antibodies”, “β-catenin” for “protein”

[12] = tested on: TGF-β1; experiment: TGF-β1 RT-PCR; settings: human hair follicle dermal papilla cells, 24 hours
Protocol: as §2, with “Korea) and TGF-β1 primers, and” for “Korea) and respective KGF and VEGF primers, and”, “factors in respective sample treatment” for “factors in sample treatment”

[13] = tested on: CREB; experiment: Melanogenesis-related protein activity assay: CREB phosphorylation (western blotting); settings: B16F10 cell line, 72 hours
Protocol: Melanocytes (B16F10 cell line) were incubated on 6-well culture plates in an incubator for 24 hours, and were treated with the peptide of the present invention with different concentrations. After 72-hour incubation, the cells were lysed, and the cells were subjected to western blotting using specific antibodies (Cell Signaling Technology, USA) to investigate the phosphorylation level of CREB, which is a signaling substance involved in melanogenesis.

[14] = tested on: DKK-1; experiment: DKK-1 western blotting; settings: human hair follicle dermal papilla cells, DKK-1 increased by DHT, 24 hours
Protocol: as §3, with “DKK-1” for “Bcl-2 and Bax”

[15] = tested on: ERK; experiment: p-ERK western blotting; settings: human hair follicle dermal papilla cells, 15 and 30 minutes
Protocol: as §3, with “15 and 30 minutes,” for “24 hours,”, “PI3K” for “Bcl-2 and Bax”, “Biotechnology, USA) and phospho-ERK antibody (Cell Signaling Technology,” for “Biotechnology,”

[16] = tested on: MITF; experiment: Melanogenesis-related protein western blotting: MITF; settings: B16F10 cell line, 72 hours
Protocol: as §5

[17] = tested on: keratin-14; experiment: Keratin-14 RT-PCR; settings: human hair follicle dermal papilla cells, 24 hours
Protocol: as §4, with “Ha3-II and keratin-14” for “DKK-1”

[18] = tested on: melanocytes (B16F10 cell line); experiment: Melanin measurement assay; settings: 72 hours, absorbance 490 nm
Protocol: After melanocytes (B16F10 cell line) in 6-well plates were cultured in an incubator at 37° C. for 24 hours, the medium of each plate was removed and exchanged with a fresh medium, followed by treatment with the present peptide with different concentrations. After the incubation for 72 hours, the culture medium was removed, and the cells were taken off and then transferred into 1.5-ml tubes, followed by centrifugation at 13,000 rpm for 3 minutes. The supernatant was removed, and cell pellets were collected to observe melanin. Then, 150 μl of 2 M NaOH was added to the cell pellets to lyse intracellular melanin at 60° C. for 30 minutes. Then, 100 μl of the supernatant obtained from the lysis was added into each well of 96-well plates, and the absorbance was measured at 490 nm.

[19] = tested on: Ha3-II; experiment: Ha3-II RT-PCR; settings: human hair follicle dermal papilla cells, 24 hours
Protocol: as §4, with “Ha3-II and keratin-14” for “DKK-1”

[20] = tested on: VEGF; experiment: VEGF RT-PCR; settings: human hair follicle dermal papilla cells, 24 hours
Protocol: as §2

[21] = tested on: TRP1; experiment: Melanogenesis-related gene RT-PCR: TRP1; settings: B16F10 cell line, 72 hours, FIG. 13b
[22] = tested on: MSX2; experiment: MSX2 RT-PCR; settings: human hair follicle dermal papilla cells, 24 hours
Protocol: as §2, with “MSX2” for “respective KGF and VEGF”, “level” for “levels”, “factor” for “factors”

Sequence	mRNA expression of tyrosinase enzyme [1]	tyrosinase activity [2]	expression of the apoptosis-related protein Bax [4]	mRNA expression of DKK-1 [5]	expression of the anti-apoptotic protein Bcl-2 [7]	growth of human hair follicle dermal papilla cells [8]	mRNA expression of MITF transcription factor [9]	protein expression of tyrosinase enzyme [10]	activity of β-catenin [11]	expression of TGF-β1 (mRNA) [12]	protein expression of DKK-1 [14]	phosphorylation level of ERK [15]	protein expression of MITF transcription factor [16]	mRNA expression of keratin-14 [17]	melanogenesis [18]	further results
KWKRSADTL [SEQ ID NO: 2]	increased	increased	decreased	decreased	increased	stimulated in a dose-dependent manner	increased	increases	increased	inhibited	decreased	increase	increases	increased	increased	expression of KGF (mRNA) [3]: increased; expression of PI3K [6]: increase; phosphorylation level of CREB [13]: increased
WKWRSADTL [SEQ ID NO: 1]	increased	increased	decreased	decreased	increased	stimulated in a dose-dependent manner	increased	increased	increased	inhibited	decreased	increased	increased	increased	increased	mRNA expression of Ha3-II [19]: increased; expression of VEGF (mRNA) [20]: increased; mRNA expression of TRP1 [21]: increases; expression of MSX2 (mRNA) [22]: increased
